According to PubChem BioAssay (NCI):
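Assay format: 96-well plates, 48-hour exposure. TGI marks complete inhibition of growth.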

Tests used:
Test in all cases: NCI tumour cell line growth inhibition, 48 h
SNB-78 CNS = tested on: SNB-78 CNS
LXFL 529 NSCLC = tested on: LXFL 529 NSCLC
KM20L2 colon = tested on: KM20L2 colon
SN12K1 renal = tested on: SN12K1 renal
P388 leukemia = tested on: P388 leukemia
HOP-18 NSCLC = tested on: HOP-18 NSCLC
RXF-631 renal = tested on: RXF-631 renal

Row | SMILES | TGI (SNB-78 CNS) [µM] | TGI (LXFL 529 NSCLC) [µM] | TGI (KM20L2 colon) [µM] | TGI (SN12K1 renal) [µM] | TGI (P388 leukemia) [µM] | TGI (HOP-18 NSCLC) [µM] | TGI (RXF-631 renal) [µM]
1 | CCc1nc2c([nH]1)C(=O)c1ccccc1C2=O | > 100 |  |  |  |  |  | 
2 | O=C(/C=C/CC(O)(c1ccccc1)c1ccccc1)Nc1ccccc1Cl |  | > 100 | > 100 |  |  |  | 
3 | O=C(CCl)Nc1ccc(C(=O)N/N=C/c2ccc(Cl)cc2)cc1 | 15.8 | 3.2 | 27.4 |  |  |  | 
4 | O=c1ccn([C@@H]2C=C(CO)[C@@H](O)[C@H]2O)c(=O)[nH]1 |  |  | > 625 | > 625 | > 625 | > 625 | 
5 | O=C1CN(c2ccccc2)C(=O)C1C(=O)Nc1ccc(Cl)c(Cl)c1 (stereo not drawn) |  | 14.3 | 16.8 |  |  |  | 14.3
